Data reported in US9573960B2, “Glioblastoma inhibiting compounds and their use” (Life & Brain GmbH, priority 2011, dated 2017).
Like-named read-outs stand apart in the source and are kept apart here.

Experiments:
[1] = test system: glioma cell line U87; experiment: Drug screening, AlamarBlue assay in U87; format: cell-based; details: Glioma cell, 144 h, read-out: reduction of the relative metabolic activity of U87
Experimental: Experiments were performed in triplicates for each sample.
For comparison with our four patient-specific primary GBM cell specimens, we used the commercially available glioma cell line U87 that is frequently investigated in drug discovery settings (FIG. 2).

[2] = test system: patient-specific GBM primary cells; experiment: Pharmacodynamic analysis of pristimerin, AlamarBlue (ICM50); format: cell-based; details: Homo sapiens, 120 h
Experimental: For pharmacodynamic analyses of pristimerin and niclosamide 5×10^4 cells were plated in 12 well plates 24 h before they were treated with concentrations indicated. 5 days after the treatment, cell viability was monitored by the AlamarBlue® assay. Experiments were performed in triplicates. The ICM50 is the concentration of agent that reduced the metabolic activity by 50% under the experimental conditions.
Pristimerin induces apoptosis in GBM primary cells. […] Because the peak plasma concentration of pristimerin is not yet known, we investigated a range of concentrations between 70 nM and 10 μM (FIG. 5). Under these conditions, pristimerin is potently cytotoxic at median ICM50's (half maximal inhibitory concentration of metabolic activity) of approximately 500 nM (FIG. 5a,b,d)

[3] = test system: GBM primary cells under non-adherent conditions (neurospheres); experiment: Pristimerin in 3D culture, non-adherent growth conditions (ICM50); format: cell-based; details: Homo sapiens, single dose, specimens 046, 078, 106
Excerpt: FIG. 11: Inhibition of GBM primary cells under adherent (solid line) vs. non-adherent (dotted line) conditions. Results represent the mean of triplicate-well-analysis for 3 different specimens at each concentration (046, 078, 106)
The GBM-inhibitory activity of Pristimerin was confirmed in 3D culture systems, i.e. non-adherent growth conditions (FIG. 11). Under anchorage-withdrawal, GBM cells form neurospheres, and investigation of their metabolic response patterns indicated a more resistant phenotype.

[4] = test system: patient-specific GBM primary cultures; experiment: AnnexinV-based FACS analysis of apoptosis; format: cell-based, human; details: 1 μM, 5-day exposure, in 7 out of 8 cultures
Experimental: […] 1×10^5 cells were sedimented by centrifugation, resuspended in […] AnnexinV buffer (BD Bioscience, Heidelberg, Germany) and incubated with 5 μl Annexin V-FITC (BD Bioscience, Heidelberg, Germany) for 1 h at RT. To distinguish between living and dead cells, labeling with 1.2 μg/ml bisbenzimide H33258 (Invitrogen, Karlsruhe, Germany) was used. Expression was determined using standard conditions in a LSRII equipped with FACSDiva Software (BD Bioscience, Heidelberg, Germany). For each measurement, 20.000 cells were counted. Annexin V positive cells, Annexin V and H33258 positive cells and H33258 positive cells were termed avital cells.
These effects could be validated as compound-specific, based on analysis of Pristimerin purchased from an independent supplier that yielded similar results (Sigma; FIG. 1b). For further experimentation, pristimerin was applied at 1 μM concentrations (FIG. 1c). […] In 7 out of 8 investigated patient-specific GBM primary cultures more than 50% of all cells could be classified as avital (FIG. 6; ***p<0.001, compared to their respective DMSO-treated control cells).

[5] = test system: GBM primary cells; experiment: Growth kinetic analysis (proliferation kinetics); format: cell-based, human; details: single dose 1 μM
Experimental: Five days after treatment in 6 cm dishes, 47,000 vital cells were plated into 3.5 cm laminin/poly-L-ornithine coated plastic dishes. 20 ng/ml EGF/bFGF were provided upon plating, and 10 ng/ml EGF/bFGF were added every other day thereafter. Four-to-six days later, adherent cells were trypsinized, harvested, counted, and plated at a density of 4.7×10^4 cells. This procedure was repeated for 4-5 passages. Mean values are presented with standard error.
Cells surviving the application of Pristimerin expand linearly on a logarithmic scale. There is an initial delay of cell growth lasting for a maximum of 10 days. However, thereafter, every patient-specific GBM primary culture we investigated thus far continued to proliferate as well as their respective DMSO-control (FIG. 7).

[6] = test system: GBM primary cells (035, 046); experiment: Long-term monitoring of cell confluency (CellaVista); format: cell-based, human; details: single dose 1 μM, post compound application
Experimental: FIG. 8: Long-term monitoring of cellular confluency post application of 1 μM pristimerin (dotted lines) in two independent GBM primary cell culture experiments (035=triangle; 046=squares) (solid line, 0.1% DMSO). Live cell-imaging was performed using the CellaVista system according to its specifications (Roche Diagnostics).
We used the CellaVistasystem (Roche Diagnostics, Mannheim) for monitoring of cell confluency as a surrogate analysis tool.

[7] = test system: clonogenic, neurosphere-forming GBM cells; experiment: Neurosphere assay after pristimerin; format: cell-based, human; details: single dose 1 μM, cases 046, 078, 106
Experimental: Based on previous investigations (Scheffler et al., 2005), a single cell suspension of 1×10^4 cells/cm^2 was diluted in 1% methylcellulose-containing PROL media provided with 20 ng/ml EGF/bFGF, and inoculated into nonadhesive culture dishes. 10 ng/ml EGF/bFGF was then added every other day. Neurospheres were quantified at 21 days in culture, triturated to a single cell suspension, which was used for plating under identical conditions and analysis of the formation of secondary or higher degree neurospheres. For analysis of multipotency, a representative fraction of 3° neurospheres were used. Neurospheres were plated onto laminin/poly-L-ornithine coated glass coverslips and, after attachment, provided with PROL media devoid of mitogens to allow differentiation for 2-3 weeks in culture before PFA-fixation and immunofluorescence analysis.
Furthermore, a single dose of pristimerin decreased the frequency of clonogenic, i.e. neurosphere-forming cells by 30-60% (FIG. 9a,b). Depletion of clonogenic cells was never observed at concentrations of […]. Clonogenic cells were always able to selfrenew and form higher-degree neurospheres that gave rise to immature neurons and astrocytes (FIG. 9c). These findings indicate that Pristimerin is not selectively inhibiting GBM cancer stem cells. […]

[8] = test system: four patient-specific primary GBM cultures
Experimental: (§1) Before screening, cell number was titrated for each cell line separately to ensure that cell proliferation remained in a linear-exponential phase throughout the experiment. 24 hours after seeding 2−3×10^3 cells/well into laminin/poly-L-ornithine coated 96-well plates, primary cultures were treated with 2 nM, 1 μM or 10 μM of each compound (stock solution 10 mM in DMSO). As a reference we treated cells with 50 μM and 500 μM temozolomide (TMZ, SigmaAldrich, Taufkirchen, Germany; stock solution of 100 mM in DMSO). Control cells were treated with 0.5-0.01% DMSO. Six days after application, cell viability was determined using the AlamarBlue® assay according to the manufacturers recommendations (Invitrogen, Karlsruhe, Germany). Fluorescence was measured using an Infinite200 microplate reader (Tecan, Crailsheim, Germany) at Xex=540 nm and Xem=590 nm. Experiments were performed in triplicates for each sample.
(§2) To identify cytotoxic and cytostatic compounds, we conducted in vitro drug-screening assays in four different patient-specific primary GBM cultures (see Table 1 for basic characterization of research specimens).
(§3) The compound library was screened at three different concentrations (10 μM, 1 μM, 2 nM). The relative metabolic activity was determined after a 5-day incubation with compounds. […] For reference, we applied 50 μM (reported plasma peak concentration) and 500 μM of temozolomide (TMZ, as described in Beier et al., 2008), the current standard chemotherapeutic GBM drug to our cells. […] However, “hits” in the setting of a primary screening were defined as a reduction of the relative metabolic activity under the level of 50% of DMSO-treated control cells.

[9] = test system: patient-specific primary human glioblastoma cells (pGBMs); experiment: Pharmacodynamic analysis of GAA and GA, AlamarBlue (IMC50); format: cell-based; details: FIG. 14A
Experimental: To validate the results obtained from primary screening, these compounds were purchased from independent suppliers (FIG. 13). Pharmacodynamic analysis was conducted by determining the concentrations that decreased the metabolic activity of pGBMs to 50% control levels (IMC50). […] For further analysis, pGBMs were collected at five days following single-dose in vitro application of the respective compound.
Considering the cellular and genetic diversity that characterizes GBM, we next investigated GAA's pharmacological effect in 17 pGBM samples derived from 11 patients (see Table 2 for list of samples and patient data). […] Next, pair-wise comparison of GAA-pharmacodynamics was performed in pGBMs to stratify results according to key clinical constellations (Bredel et al., 2011; Glas et al., 2010; Simpson et al., 2006; Weller et al., 2010). Glioblastoma samples derived from (i) the tumor center vs. periphery region of the same patient, (ii) primary vs. recurrent disease of the same patient, (iii) MGMT-promoter hypermethylated vs. unmethylated tissue, (iv) p53 wild type vs. p53 mutated samples, as well as from (v) NFKBIA wild type vs. NFKBIA deleted genotypes.
For pharmacodynamic analysis, 5×10^4 cells were plated in 12-well-plates at 24 hours before application of compound-series. […] Experiments were performed in triplicates. IMC50 was defined as the compound concentration that reduced the metabolic activity by 50% compared to control conditions and determined via data analysis in GraphPad Prism 4.0.

[10] = test system: self-renewing, multipotent cells among pGBMs; experiment: Neurosphere assay after GA or GAA pre-treatment; format: cell-based, human; details: single pre-treatment, vital cells collected at day 5
Excerpt: In a next series of experiments we aimed to determine the influence of the compounds on the activity of tumor-initiating cells (TICs). TICs embody a severe functional consequence of intra-tumor heterogeneity as, at least in human glioblastoma, it is anticipated that they are represented by a small subpopulation of stem-like, i.e. self-renewing and multipotent cells (e.g. Sties and Rowitch, 2008; Zhou et al., 2009). In previous work, we established their frequencies in the range from 0.25 to 1% among culture passage 5-10 pGBMs (see Glas et al., 2010). To estimate potential compound-induced alterations to the pool of self-renewing and multipotent cells in pGBMs, the neurosphere assay (NSA) was applied as recently described (Scheffler et al., 2005; Glas et al., 2010). Heterogeneous pGBM samples (#'s 046, 078, 106) were exposed to the compounds, vital cells were collected at day 5, and processed under non-adherent conditions in the NSA (neurosphere assay, see methods).
The neurosphere assay was performed to estimate the frequency of self-renewing clonogenic cells according to established protocols (Glas et al., 2010; Scheffler et al., 2005). Neurospheres were quantified at 21 days in culture, triturated to a single cell suspension, and re-plated for analysis of the secondary and tertiary neurospheres. […]

[11] = test system: pGBMs (#046); experiment: Orthotopic xenotransplantation of pre-treated pGBMs; format: in vivo, Rag2Il2rg−/− mice; details: pGBMs pre-treated 5 days at IMC50, 10^6 cells into striatum, vs DMSO
Experimental: FIG. 18: Gambogig acid amide decreases the tumor-initiating potential of pGBMs. pGBMs (#046) were treated with IMC50 concentrations of the respective compounds for 5 days in vitro. […] surviving vital cells were subsequently collected and injected into the striatum of adult immunocompromised mice (n=5 for each experiment). (A) Kaplan-Meier curves show no significant survival advantage upon injection of pGBMs pre-treated with gambogic acid (dotted) vs. DMSO controls (solid).
Cells were harvested, counted and re-suspended in 0.1% DNase/PBS. Cellular viability was confirmed via trypan blue exclusion. 10^6 DMSO-control-, gambogic acid or gambogic acid amide-pretreated pGBMs were injected stereotactically into the striatum of 12 week old Rag2Il2rg^−/− mice (0.8 mm anterior, 2 mm lateral, 3 mm deep). Mice were monitored daily and euthanized upon presentation with signs of distress/neurological symptoms or significant weight loss. For subsequent histological analysis, brains were removed, cryoprotected, and serially cut on a cryostat (Leica) at 20 μm thickness. Every fifth section underwent routine H&E staining for histological analysis of tumor formation.

[12] = test system: CD133+ vs. CD133− pGBM cells; experiment: CD133+ vs CD133- pGBM cells, metabolic activity and cell confluency; format: cell-based, human; details: IMC50, 5 days after single exposure
Excerpt: FIG. 19: Preferred targeting of CD133^+ GBM cells by Gambogig acid amide. (A) FACS-based identification and sorting of CD133^+ subpopulations from pGBMs (#106, top; #058, bottom). Note the respective frequency of CD133^+ cells is indicated within the panel). (B) Relative metabolic activity and cell confluency of CD133-positive vs. CD133-negative pGBM cells determined at 5 days after single exposure of Gambogic acid (IMC50, top) and Gambogic acid amide (IMC50, bottom). Note the selective sensitivity of CD133^+ cells in response to application of Gambogic acid amide.
To further corroborate the cancer stem cell-specific inhibitory activity of GAA, we selected CD133-positive and -negative cell populations from pGBMs (FIG. 19). CD133^+ cells are known among glioblastoma samples to represent a minority of tumorigenic stem-like phenotypes (Singh et al., 2004). Comparative evaluation of the inhibitory effects induced by GAA and GA on CD133^+ vs. CD133^− pGBM cells confirmed our assumption.
For fluorescence-activated cell separation (FACS), cells were stained with CD133/2-PE or with CD133/2-APC (both 1:20; Miltenyi Biotech) and sorted on a BD FACS DiVa Cell Sorter (Becton Dickinson).

[13] = test system: four patient-specific primary GBM cultures; experiment: cells; details: Homo sapiens, read-out: cellular viability of pGBMs, control levels
Experimental: as §1, §2, §3

SMILES | inhibition at 1 µM [1] | IC50 ([2]; 70 nM to 10 μM, 5 days post application, read-out: median ICM50 (half maximal inhibitory concentration of metabolic activity)) | IC50 ([2]; Microsource compound, 5 days, read-out: median ICM50) | IC50 ([2]; Sigma compound, 5 days, read-out: median ICM50) | IC50 [3] | cells classified as avital [4] | initial delay of cell growth [5] | time before surviving cells take on proliferative activity [6] | decrease of frequency of clonogenic, neurosphere-forming cells [7] | reduction of metabolic activity ([8]; case 023, 1 μM) | reduction of metabolic activity ([8]; case 035, 1 μM) | reduction of metabolic activity ([8]; case 046, 1 μM) | reduction of metabolic activity ([8]; case 106, 1 μM) | inhibition of the metabolic activity of pGBMs [9] | frequency of self-renewing, multipotent cells (primary, secondary, tertiary spheres) [10] | survival of animals that received pre-treated pGBMs [11] | selective reduction of cell growth and viability among CD133+ vs CD133− cells [12] | viability at 1 µM [13]
COC(=O)[C@]1(C)CC[C@]2(C)CC[C@]3(C)C4=CC=C5C(=CC(=O)C(O)=C5C)[C@]4(C)CC[C@@]3(C)[C@@H]2C1 [Pristimerin] | ≤ 50% | ~500 nM | 580 nM | 430 nM | 1100 nM | more than 50% | ≤ 10 days | ≥ 10 days | 30-60% | 90% | 97% | 78% | 97% |  |  |  |  | 
CC(C)=CCC[C@]1(C)C=Cc2c(O)c3c(c(CC=C(C)C)c2O1)O[C@]12C(=C[C@@H]4C[C@H]1C(C)(C)O[C@@]2(C/C=C(/C)C(=O)O)C4=O)C3=O [GA, Gambogic acid] |  |  |  |  |  |  |  |  |  |  |  |  |  | effectively and to a comparable degree | no GA-induced alteration | not evident | could not be revealed | < 50%
